Results from PubChem BioAssay AID2060495 (Molecular Pharmacology Branch, DTP, NCI, 2025).

Test system: 521955-158-R2-J5-PDC complex spheroid viability
Assay: Anticancer human tumor 521955-158-R2-J5-PDC patient-derived pancreatic carcinoma cell line growth inhibition [GQUAD]
Conditions: for IC50: curve of first compound; for viability, T/C: stronger effect = lower value
Procedure, shortened: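 Viability of tumor cells grown as complex spheroids with endothelial and stromal cells, exposed to drug combinations. Top concentration at or near clinical Cmax (else 10 microM), diluted in half-log increments.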

[1] = second compound 0.0316 µM, first compound 0.0316 µM
[2] = second compound 0.0316 µM, first compound 0.1 µM
[3] = second compound 0.0316 µM, first compound 0.316 µM
[4] = second compound 0.0316 µM, first compound 1 µM
[5] = second compound 0.0316 µM, first compound 3.16 µM
[6] = second compound 0.0316 µM, first compound 10 µM
[7] = second compound 0.1 µM, first compound 0.0316 µM
[8] = second compound 0.1 µM, first compound 0.1 µM
[9] = second compound 0.1 µM, first compound 0.316 µM
[10] = second compound 0.1 µM, first compound 1 µM
[11] = second compound 0.1 µM, first compound 3.16 µM
[12] = second compound 0.1 µM, first compound 10 µM
[13] = second compound 0.316 µM, first compound 0.0316 µM
[14] = second compound 0.316 µM, first compound 0.1 µM
[15] = second compound 0.316 µM, first compound 0.316 µM
[16] = second compound 0.316 µM, first compound 1 µM
[17] = second compound 0.316 µM, first compound 3.16 µM
[18] = second compound 0.316 µM, first compound 10 µM
[19] = second compound 1 µM, first compound 0.0316 µM
[20] = second compound 1 µM, first compound 0.1 µM
[21] = second compound 1 µM, first compound 0.316 µM
[22] = second compound 1 µM, first compound 1 µM
[23] = second compound 1 µM, first compound 3.16 µM
[24] = second compound 1 µM, first compound 10 µM
[25] = second compound 3.16 µM, first compound 0.0316 µM
[26] = second compound 3.16 µM, first compound 0.1 µM
[27] = second compound 3.16 µM, first compound 0.316 µM
[28] = second compound 3.16 µM, first compound 1 µM
[29] = second compound 3.16 µM, first compound 3.16 µM
[30] = second compound 3.16 µM, first compound 10 µM
[31] = second compound 10 µM, first compound 0.0316 µM
[32] = second compound 10 µM, first compound 0.1 µM
[33] = second compound 10 µM, first compound 0.316 µM
[34] = second compound 10 µM, first compound 1 µM
[35] = second compound 10 µM, first compound 3.16 µM
[36] = second compound 10 µM, first compound 10 µM
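Also: spheroids exposed to agents for one week before reading.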
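For viability, T/C in this document: 100% = DMSO vehicle control viability.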

CC1COCCN1c1cc(C2(S(C)(=N)=O)CC2)nc(-c2ccnc3[nH]ccc23)n1 (stereo not drawn) + Cc1cnc(CNC(=O)c2c(=O)c3ccc(N4CCCN(C)CC4)nc3n3c2sc2ccccc23)cn1
IC50 (second compound 0.0316 µM): 0.614 µM
IC50 (second compound 0.1 µM): 0.543 µM
IC50 (second compound 0.316 µM): < 0.0316 µM
IC50 (second compound 1 µM): < 0.0316 µM
IC50 (second compound 3.16 µM): < 0.0316 µM
IC50 (second compound 10 µM): < 0.0316 µM
viability, T/C [1]: 80.3%
viability, T/C [2]: 86.1%
viability, T/C [3]: 82.4%
viability, T/C [4]: 26.1%
viability, T/C [5]: 9.1%
viability, T/C [6]: 10.6%
viability, T/C [7]: 59.4%
viability, T/C [8]: 60.2%
viability, T/C [9]: 76.2%
viability, T/C [10]: 32.7%
viability, T/C [11]: 12.3%
viability, T/C [12]: 10.4%
viability, T/C [13]: 42.2%
viability, T/C [14]: 46.2%
viability, T/C [15]: 53.2%
viability, T/C [16]: 32.8%
viability, T/C [17]: 13.7%
viability, T/C [18]: 11.3%
viability, T/C [19]: 31%
viability, T/C [20]: 24.5%
viability, T/C [21]: 23.4%
viability, T/C [22]: 23.7%
viability, T/C [23]: 15.4%
viability, T/C [24]: 11.1%
viability, T/C [25]: 21.3%
viability, T/C [26]: 23.6%
viability, T/C [27]: 21.5%
viability, T/C [28]: 19.3%
viability, T/C [29]: 13.6%
viability, T/C [30]: 9.15%
viability, T/C [31]: 16.2%
viability, T/C [32]: 19.1%
viability, T/C [33]: 20.9%
viability, T/C [34]: 22.8%
viability, T/C [35]: 14.3%
viability, T/C [36]: 7.66%

COc1ccc([C@@H](O)c2cc(-c3ncnc4cc(N5CCOCC5)ccc34)c(F)cc2Cl)nn1 + Cc1cnc(CNC(=O)c2c(=O)c3ccc(N4CCCN(C)CC4)nc3n3c2sc2ccccc23)cn1
IC50 (second compound 0.0316 µM): 0.292 µM
IC50 (second compound 0.1 µM): 0.225 µM
IC50 (second compound 0.316 µM): < 0.0316 µM
IC50 (second compound 1 µM): < 0.0316 µM
IC50 (second compound 3.16 µM): < 0.0316 µM
IC50 (second compound 10 µM): < 0.0316 µM
viability, T/C [1]: 79.2%
viability, T/C [2]: 62.5%
viability, T/C [3]: 53.6%
viability, T/C [4]: 30.4%
viability, T/C [5]: 24.8%
viability, T/C [6]: 25.6%
viability, T/C [7]: 65.2%
viability, T/C [8]: 56.8%
viability, T/C [9]: 49.1%
viability, T/C [10]: 31.7%
viability, T/C [11]: 30.7%
viability, T/C [12]: 20.9%
viability, T/C [13]: 37.4%
viability, T/C [14]: 35.3%
viability, T/C [15]: 37%
viability, T/C [16]: 24.5%
viability, T/C [17]: 24.9%
viability, T/C [18]: 18.3%
viability, T/C [19]: 21.7%
viability, T/C [20]: 20.7%
viability, T/C [21]: 18.4%
viability, T/C [22]: 18.2%
viability, T/C [23]: 18.8%
viability, T/C [24]: 18.1%
viability, T/C [25]: 19.5%
viability, T/C [26]: 20.4%
viability, T/C [27]: 18.3%
viability, T/C [28]: 16.9%
viability, T/C [29]: 15.2%
viability, T/C [30]: 12%
viability, T/C [31]: 18.8%
viability, T/C [32]: 18.6%
viability, T/C [33]: 18.3%
viability, T/C [34]: 16.8%
viability, T/C [35]: 14.5%
viability, T/C [36]: 11.6%

Cc1cccc(N(C)C(=O)C2C(O)CCN2c2nc(C)cc(C(F)(F)F)c2C#N)c1 (stereo not drawn) + Cc1cnc(CNC(=O)c2c(=O)c3ccc(N4CCCN(C)CC4)nc3n3c2sc2ccccc23)cn1
IC50 (second compound 0.0316 µM): > 10 µM
IC50 (second compound 0.1 µM): > 10 µM
IC50 (second compound 0.316 µM): < 0.0316 µM
IC50 (second compound 1 µM): < 0.0316 µM
IC50 (second compound 3.16 µM): < 0.0316 µM
IC50 (second compound 10 µM): < 0.0316 µM
viability, T/C [1]: 96.8%
viability, T/C [2]: 75%
viability, T/C [3]: 92.8%
viability, T/C [4]: 78.9%
viability, T/C [5]: 101%
viability, T/C [6]: 89.6%
viability, T/C [7]: 54.9%
viability, T/C [8]: 66.2%
viability, T/C [9]: 71.5%
viability, T/C [10]: 62.2%
viability, T/C [11]: 88.7%
viability, T/C [12]: 74.6%
viability, T/C [13]: 43.7%
viability, T/C [14]: 49.9%
viability, T/C [15]: 40.9%
viability, T/C [16]: 43.7%
viability, T/C [17]: 46.5%
viability, T/C [18]: 38.2%
viability, T/C [19]: 23.6%
viability, T/C [20]: 22.5%
viability, T/C [21]: 22.7%
viability, T/C [22]: 24.4%
viability, T/C [23]: 20.9%
viability, T/C [24]: 22.9%
viability, T/C [25]: 19.1%
viability, T/C [26]: 22.3%
viability, T/C [27]: 19.8%
viability, T/C [28]: 22.8%
viability, T/C [29]: 20.6%
viability, T/C [30]: 20.1%
viability, T/C [31]: 20.7%
viability, T/C [32]: 19.2%
viability, T/C [33]: 21.5%
viability, T/C [34]: 20.2%
viability, T/C [35]: 24.7%
viability, T/C [36]: 20.2%

O=C(c1cc(Cc2n[nH]c(=O)c3ccccc23)ccc1F)N1CCN(C(=O)C2CC2)CC1 + Cc1cnc(CNC(=O)c2c(=O)c3ccc(N4CCCN(C)CC4)nc3n3c2sc2ccccc23)cn1
IC50 (second compound 0.0316 µM): > 10 µM
IC50 (second compound 0.1 µM): 2.86 µM
IC50 (second compound 0.316 µM): < 0.0316 µM
IC50 (second compound 1 µM): < 0.0316 µM
IC50 (second compound 3.16 µM): < 0.0316 µM
IC50 (second compound 10 µM): < 0.0316 µM
viability, T/C [1]: 83.5%
viability, T/C [2]: 56%
viability, T/C [3]: 77.1%
viability, T/C [4]: 64.4%
viability, T/C [5]: 75.4%
viability, T/C [6]: 59.7%
viability, T/C [7]: 60.3%
viability, T/C [8]: 63.5%
viability, T/C [9]: 59.7%
viability, T/C [10]: 52.9%
viability, T/C [11]: 51.8%
viability, T/C [12]: 32.5%
viability, T/C [13]: 35.1%
viability, T/C [14]: 50%
viability, T/C [15]: 37.9%
viability, T/C [16]: 36.9%
viability, T/C [17]: 30.8%
viability, T/C [18]: 24.1%
viability, T/C [19]: 18%
viability, T/C [20]: 19.9%
viability, T/C [21]: 22.8%
viability, T/C [22]: 23.9%
viability, T/C [23]: 21.1%
viability, T/C [24]: 16.1%
viability, T/C [25]: 16.6%
viability, T/C [26]: 19.6%
viability, T/C [27]: 21.1%
viability, T/C [28]: 15.9%
viability, T/C [29]: 16.5%
viability, T/C [30]: 13.9%
viability, T/C [31]: 21.2%
viability, T/C [32]: 18.9%
viability, T/C [33]: 18.1%
viability, T/C [34]: 18.2%
viability, T/C [35]: 16.7%
viability, T/C [36]: 12.1%
